For orientation: melting point means the temperature, or range, at which the solid turns liquid.

Structures are written as SMILES.

`Cc1ncc(Cn2cc(COC(=O)COc3cc(Cl)c(Cl)c(Cl)c3)nn2)c(N)n1` [Compound 64] showed a melting point of 160 to 161 °C.

Turning to `Cc1ncc(Cn2nnc(COc3cccc(C(F)(F)F)c3)c2I)c(N)n1` [Compound 81], the melting point is 146 to 148 °C.

The molecule `Cc1ncc(Cn2cc(COC(=O)c3ccc([N+](=O)[O-])cc3Cl)nn2)c(N)n1` [Compound 42] returned a melting point of 129 to 130 °C.

The molecule `Cc1ncc(Cn2cc(CNC(=O)c3ccc([N+](=O)[O-])cc3)nn2)c(N)n1` [Compound 47] gave a melting point of 239 to 240 °C.

As to `Cc1ncc(Cn2nnc(CNC(=O)c3ccc([N+](=O)[O-])cc3)c2I)c(N)n1` [Compound 101], the melting point is 223 to 224 °C.

In turn, `Cc1ncc(Cn2cc(CNC(=O)COc3cccc(C)c3C)nn2)c(N)n1` [Compound 77] showed a melting point of 169 to 170 °C.

Take `Cc1ncc(Cn2cc(CNC(=O)c3ccccc3Cl)nn2)c(N)n1` [Compound 49]: the melting point fell in the range of 217 to 218 °C.

Take `Cc1ncc(Cn2cc(CNC(=O)COc3ccc(Br)cc3)nn2)c(N)n1` [Compound 74]: the melting point is 105 to 106 °C.

With `Cc1ncc(Cn2cc(COC(=O)c3ccccc3Br)nn2)c(N)n1` [Compound 40], the melting point lay in the range of 174 to 176 °C.

On to `Cc1ccc(OCc2cn(Cc3cnc(C)nc3N)nn2)cc1` [Compound 17], for which the melting point was 157 to 158 °C.

Take `Cc1ncc(Cn2cc(CNC(=O)COc3ccccc3)nn2)c(N)n1` [Compound 78]: the melting point lay within 168 to 169 °C.

For the molecule `Cc1ncc(Cn2cc(CNC(=O)COc3ccc(F)cc3Cl)nn2)c(N)n1` [Compound 79], the melting point is 125 to 126 °C.

With `Cc1ncc(Cn2nnc(COC(=O)c3ccccc3Cl)c2I)c(N)n1` [Compound 89], the melting point lay in the range of 185 to 187 °C.

In turn, `Cc1ncc(Cn2nnc(COC(=O)c3cccc(Cl)c3)c2I)c(N)n1` [Compound 90] registered a melting point of 185 to 187 °C.

In the case of `Cc1ncc(Cn2nnc(CNC(=O)c3ccccc3Cl)c2I)c(N)n1` [Compound 100], the melting point lay in the range of 186 to 188 °C.

For `Cc1ncc(Cn2cc(COC(=O)COc3ccc([N+](=O)[O-])cc3)nn2)c(N)n1` [Compound 66], the melting point was in the range of 145 to 148 °C.

On to `Cc1ncc(Cn2nnc(COC(=O)c3ccc(F)cc3)c2I)c(N)n1` [Compound 94], for which the melting point lay in the range of 207 to 209 °C.

As for `Cc1ncc(Cn2cc(COc3ccc(F)cc3)nn2)c(N)n1` [Compound 20], the melting point lay in the range of 178 to 179 °C.

`Cc1ncc(Cn2cc(COC(=O)COc3ccc(C(C)(C)C)cc3)nn2)c(N)n1` [Compound 61] gave a melting point of 107 to 110 °C.

The molecule `Cc1ncc(Cn2cc(CNC(=O)c3cccc([N+](=O)[O-])c3)nn2)c(N)n1` [Compound 53] came in with a melting point of 188 to 189 °C.

Molecule `Cc1ncc(Cn2cc(CNC(=O)c3ccc(Cl)cc3)nn2)c(N)n1` [Compound 48] registered a melting point of 165 to 167 °C.

Molecule `Cc1ncc(Cn2cc(CNC(=O)c3ccc(F)cc3)nn2)c(N)n1` [Compound 44] registered a melting point of 211 to 212 °C.

In turn, `Cc1ncc(Cn2nnc(CNC(=O)c3ccccc3Br)c2I)c(N)n1` [Compound 109] yielded a melting point of 200 to 202 °C.

In turn, `COc1ccc(OCC(=O)OCc2cn(Cc3cnc(C)nc3N)nn2)cc1` [Compound 58] registered a melting point of 128 to 129 °C.

The molecule `Cc1ncc(Cn2cc(CNC(=O)COc3ccc([N+](=O)[O-])cc3)nn2)c(N)n1` [Compound 73] registered a melting point of 143 to 144 °C.

In turn, `Cc1ncc(Cn2cc(COc3ccc(C#N)cc3)nn2)c(N)n1` [Compound 22] displayed a melting point of 185 to 186 °C.

For the molecule `Cc1ncc(Cn2cc(CNC(=O)COc3ccc(Cl)cc3)nn2)c(N)n1` [Compound 71], the melting point was in the range of 124 to 125 °C.

In turn, `Cc1ncc(Cn2nnc(COC(=O)c3ccccc3Br)c2I)c(N)n1` [Compound 98] returned a melting point of 200 to 202 °C.

For the molecule `Cc1ncc(Cn2nnc(CNC(=O)c3ccccc3F)c2I)c(N)n1` [Compound 105], the melting point lay within 204 to 206 °C.

Regarding `Cc1ncc(Cn2nnc(COc3ccc(Cl)cc3Cl)c2I)c(N)n1` [Compound 83], the melting point fell in the range of 176 to 177 °C.

For the molecule `Cc1ncc(Cn2nnc(COC(=O)c3ccc(Cl)cc3)c2I)c(N)n1` [Compound 91], the melting point lay in the range of 192 to 193 °C.

Take `Cc1ncc(Cn2nnc(COC(=O)c3cccc([N+](=O)[O-])c3)c2I)c(N)n1` [Compound 97]: the melting point was in the range of 201 to 202 °C.

Molecule `Cc1ncc(Cn2cc(CNC(=O)COc3ccccc3Cl)nn2)c(N)n1` [Compound 69] displayed a melting point of 201 to 202 °C.

Turning to `Cc1ccc(OCC(=O)OCc2cn(Cc3cnc(C)nc3N)nn2)cc1` [Compound 57], the melting point was 149 to 151 °C.

`Cc1ncc(Cn2nnc(COc3ccccc3[N+](=O)[O-])c2I)c(N)n1` [Compound 80] displayed a melting point of 178 to 180 °C.

In the case of `Cc1ncc(Cn2nnc(CNC(=O)c3ccc([N+](=O)[O-])cc3Cl)c2I)c(N)n1` [Compound 107], the melting point was in the range of 183 to 184 °C.

With `Cc1cccc(OCc2cn(Cc3cnc(C)nc3N)nn2)c1` [Compound 19], the melting point was 58 to 59 °C.

Consider `Cc1ncc(Cn2nnc(COc3ccccc3Br)c2I)c(N)n1` [Compound 85], for which the melting point lay in the range of 145 to 147 °C.

`Cc1ncc(Cn2nnc(COC(=O)c3ccccc3F)c2I)c(N)n1` [Compound 93] came in with a melting point of 187 to 188 °C.

In turn, `Cc1ncc(Cn2cc(CNC(=O)c3ccccc3Br)nn2)c(N)n1` [Compound 52] returned a melting point of 233 to 234 °C.

The molecule `Cc1ncc(Cn2nnc(CNC(=O)c3cccc([N+](=O)[O-])c3)c2I)c(N)n1` [Compound 108] displayed a melting point of 202 to 204 °C.

`Cc1ncc(Cn2nnc(CNC(=O)c3ccccc3)c2I)c(N)n1` [Compound 102] yielded a melting point of 218 to 220 °C.

`Cc1ccc(C(=O)NCc2nnn(Cc3cnc(C)nc3N)c2I)cc1` [Compound 106] showed a melting point of 180 to 182 °C.

Turning to `Cc1ncc(Cn2nnc(CNC(=O)c3cccc(Cl)c3)c2I)c(N)n1` [Compound 99], the melting point was in the range of 197 to 198 °C.

`Cc1ncc(Cn2cc(CNC(=O)c3ccc([N+](=O)[O-])cc3Cl)nn2)c(N)n1` [Compound 51]: the melting point is > 260 °C.

Consider `Cc1ncc(Cn2cc(COC(=O)COc3ccc(Cl)cc3C)nn2)c(N)n1` [Compound 59], for which the melting point fell in the range of 138 to 140 °C.

Consider `Cc1ccc(C(=O)NCc2cn(Cc3cnc(C)nc3N)nn2)cc1` [Compound 45], for which the melting point is 132 to 133 °C.

For `Cc1ncc(Cn2cc(COC(=O)COc3ccc([N+](=O)[O-])cc3Cl)nn2)c(N)n1` [Compound 67], the melting point lay within 145 to 148 °C.

The molecule `Cc1ncc(Cn2cc(COC(=O)COc3ccc(Cl)cc3)nn2)c(N)n1` [Compound 56] displayed a melting point of 152 to 153 °C.

Molecule `Cc1ncc(Cn2cc(COc3ccc(Br)cc3)nn2)c(N)n1` [Compound 21] displayed a melting point of 167 to 168 °C.

`Cc1ncc(Cn2cc(CNC(=O)c3ccccc3F)nn2)c(N)n1` [Compound 46] displayed a melting point of 205 to 206 °C.

The molecule `Cc1ncc(Cn2nnc(COC(=O)c3ccc([N+](=O)[O-])cc3Cl)c2I)c(N)n1` [Compound 96] had a melting point of 183 to 184 °C.
